Key:
[1] = tested on: prostate cancer cell lines PC-3, DU 145 and LNCaP; settings: cited from earlier work
[2] = tested on: patients with metastatic prostatic carcinoma; settings: single agent; cited from earlier work
[3] = tested on: CYP enzymes (cytochrome P450 system); test: Inhibition of CYP enzymes; assay type: in vitro ADME
Source text: This may result in increased toxicity of certain drugs (see Appendix 5). Patients will be monitored closely for drug interactions or adverse reactions to concomitant medications. Investigators are cautioned to adjust concomitant medication dosages appropriately.

[4] = tested on: mismatch repair-proficient and mismatch repair-deficient cell lines; settings: cited from earlier work
[5] = tested on: human tumor cell lines with different sensitivities to cisplatin; settings: at equimolar basis; cited from earlier work
human lung cancer cells = settings: cited from earlier work

N.NC1CCCCC1.[Cl-].[Cl-].[Pt+2] [JM118, reference compound]
effect of treatment on prostate cancer cells [1]: tumor cell kill

N.N.[Cl][Pt][Cl] [cisplatin]
efficacy [2]: not effective

CC(=O)[O][Pt]([NH2])([Cl])([Cl])([NH]C1CCCCC1)[O]C(C)=O [satraplatin, bis(acetato)ammine dichloro(cyclohexylamine)platinum (IV)]
inhibition of CYP enzymes [3]: strong inhibitor | effect of treatment on prostate cancer cells [1]: tumor cell kill | sensitivity of androgen-insensitive PC-3 and DU 145 vs androgen-sensitive LNCaP [1]: more sensitive | difference in sensitivity between mismatch repair-proficient and -deficient cell lines [4]: no difference in sensitivity | levels of platinum-DNA adducts compared to cisplatin [5]: lower levels of platinum-DNA adducts | effect on radiation response (human lung cancer cells): can potentiate the effects of radiation
